# Several values for one entry are separate records, joined by “and”; a condition that tells them apart may be missing. Equal entries are not always repeated. Entries after “also recorded” stand apart in the source; their conditions may differ.
# Experiments:
# [1] = incubation time 0 min; 3 μM, 0.2 mg/mL human liver microsome, NADPH
# in vitro = details: human, microsomes, pH 7.4
# HIV-1IIIB = HIV-1IIIB replication inhibition assay in MT-2 lymphocytes; type: cell-based; details: for TI = CC50/EC50: HIV-1IIIB, MT-2 cells
# Solubility = type: physicochemical; details: qualitative
# HIV-1NL4-3 = HIV-1NL4-3 replication inhibition assay in MT-4 lymphocytes; type: cell-based; details: HIV-1NL4-3, MT-4 cells
structure (smiles),measurement,setting,value
"C=C(C)[C@@H]1CC[C@]2(C(=O)N3CCC(CCCC(=O)O)CC3)CC[C@]3(C)[C@H](CC[C@@H]4[C@@]5(C)CC[C@H](O)C(C)(C)[C@@H]5CC[C@]43C)[C@@H]12 [Compound 38, N-[3β-Hydroxy-lup-20(29)-en-28-oyl]-4-piperidine butyric acid]",Persentage of Remaining Parent Compounds (X±SD)%,[1],100.0%
same,half-life,in vitro,~2.08 h
"C=C(C)[C@@H]1CC[C@]2(C(=O)NCCCCCCCC(=O)O)CC[C@]3(C)[C@H](CC[C@@H]4[C@@]5(C)CC[C@H](O)C(C)(C)[C@@H]5CC[C@]43C)[C@@H]12 [Compound 23, N-[3β-Hydroxy-lup-20(29)-en-28-oyl]-8-aminooctanoic acid]",Persentage of Remaining Parent Compounds (X±SD)%,[1],100.0%
"C=C(C)[C@@H]1CC[C@]2(C(=O)N3CCC(CCCC(=O)NCCN4CCOCC4)CC3)CC[C@]3(C)[C@H](CC[C@@H]4[C@@]5(C)CC[C@H](OC(=O)CC(C)(C)C(=O)O)C(C)(C)[C@@H]5CC[C@]43C)[C@@H]12 [Compound 47, N’-[N-[3β-O-(3′,3′-Dimethylsuccinyl)-lup-20(29)-en-28-oyl]-4-piperidine-butanoyl]-2-aminoethylmorpholine]",TI = CC50/EC50,HIV-1IIIB,"2,473"
"C=C(CBr)[C@@H]1CC[C@]2(C(=O)N[C@@H](CC(C)C)C(=O)O)CC[C@]3(C)[C@H](CC[C@@H]4[C@@]5(C)CC[C@H](OC(=O)CC(C)(C)C(=O)O)C(C)(C)[C@@H]5CC[C@]43C)[C@@H]12 [Compound 30, N-[3β-O-(3′,3′-Dimethylsuccinyl)-30-bromo-lup-20(29)-en-28-oyl]-leucine]",TI = CC50/EC50,HIV-1IIIB,"3.0×10^3 and 3,022"
C=C(COCCN1CCOCC1)[C@@H]1CC[C@]2(C(=O)NCCCCCCCC(=O)NC)CC[C@]3(C)[C@H](CC[C@@H]4[C@@]5(C)CC[C@H](O)C(C)(C)[C@@H]5CC[C@]43C)[C@@H]12 [Compound 21],solubility,Solubility,improved solubility; also recorded: good solubility
"C=C(C)[C@@H]1CC[C@]2(C(=O)N3CCC(CCCC(=O)N4CCOCC4)CC3)CC[C@]3(C)[C@H](CC[C@@H]4[C@@]5(C)CC[C@H](OC(=O)CC(C)(C)C(=O)O)C(C)(C)[C@@H]5CC[C@]43C)[C@@H]12 [Compound 46, N’-[N-[3β-O-(3′,3′-Dimethylsuccinyl)-lup-20(29)-en-28-oyl]-4-piperidine-butanoyl]-morpholine]",TI = CC50/EC50,HIV-1IIIB,"1,748"
"C=C(C)[C@@H]1CC[C@]2(C(=O)N3CCC(CCCC(=O)O)CC3)CC[C@]3(C)[C@H](CC[C@@H]4[C@@]5(C)CC[C@H](OC(=O)CC(C)(C)C(=O)O)C(C)(C)[C@@H]5CC[C@]43C)[C@@H]12 [Compound 39, N-[3β-O-(3′,3′-Dimethylsuccinyl)-lup-20(29)-en-28-oyl]-4-piperidine butyric acid]",TI = CC50/EC50,HIV-1IIIB,"1.4 ×10^3 and 1,389"
"C=C(COCCN1CCOCC1)[C@@H]1CC[C@]2(C(=O)NCCCCCCCC(=O)O)CC[C@]3(C)[C@H](CC[C@@H]4[C@@]5(C)CC[C@H](O)C(C)(C)[C@@H]5CC[C@]43C)[C@@H]12 [Compound 20, N-[3β-Hydroxy-30-(2′-morpholinoethoxy)-lup-20(29)-en-28-oyl]-8-aminooctanoic acid]",solubility,Solubility,increase in the derivative’s solubility
"C=C(C)[C@@H]1CC[C@]2(C(=O)N[C@@H](CC(C)C)C(=O)O)CC[C@]3(C)[C@H](CC[C@@H]4[C@@]5(C)CC[C@H](O)C(C)(C)[C@@H]5CC[C@]43C)[C@@H]12 [Compound 22, N-[3β-Hydroxy-lup-20(29)-en-28-oyl]-leucine]",EC50: concentration that inhibits HIV-1IIIB replication by 50%,"HIV-1IIIB; HIV-1IIIB infected MT-2 cells, averages of at least three experiments",did not exhibit antiviral replication activity
"C=C(C)[C@@H]1CC[C@]2(C(=O)N3CCC(CCCC(=O)NC)CC3)CC[C@]3(C)[C@H](CC[C@@H]4[C@@]5(C)CC[C@H](OC(=O)CC(C)(C)C(=O)O)C(C)(C)[C@@H]5CC[C@]43C)[C@@H]12 [Compound 45, N’-[N-[3β-O-(3′,3′-Dimethylsuccinyl)-lup-20(29)-en-28-oyl]-4-piperidine-butanoyl]-aminomethane]",TI = CC50/EC50,HIV-1NL4-3,> 41.7
"C=C(C)[C@@H]1CC[C@]2(C(=O)N3CCC(CCCC(=O)NCCCN4CCOCC4)CC3)CC[C@]3(C)[C@H](CC[C@@H]4[C@@]5(C)CC[C@H](OC(=O)CC(C)(C)C(=O)O)C(C)(C)[C@@H]5CC[C@]43C)[C@@H]12 [Compound 48, N’-[N-[3β-O-(3′,3′-Dimethylsuccinyl)-lup-20(29)-en-28-oyl]-4-piperidine-butanoyl]-3-aminopropylmorpholine]",TI = CC50/EC50,HIV-1IIIB,"3,087"
"C=C(C)[C@@H]1CC[C@]2(C(=O)NCCCCCCCC(=O)N[C@@H](CC(C)C)[C@H](O)CC(=O)O)CC[C@]3(C)[C@H](CC[C@@H]4[C@@]5(C)CC[C@H](O)C(C)(C)[C@@H]5CC[C@]43C)[C@@H]12 [Compound 3b, (3R,4S)-N’-[N-[3β-hydroxylup-20(29)-en-28-oyl]-8-aminooctanoyl]-4-amino-3-hydroxy-6-methylheptanoic acid]",TI = CC50/EC50,HIV-1NL4-3,> 112.4
